How the values were obtained:
Experiment in all cases: Inhibition of in vitro proliferation of tumor cells by PBD compounds (CTG)
Assay type in all cases: cell-based
[1] = system: NCI-H23 (human non-small cell lung cancer cells); details: 144 h, 6 days of culture
Method: (§1) The objective of this assay is to measure the activity of the compounds of the present disclosure in inhibiting the proliferation of different tumor cell lines: SK-BR-3 tumor cells (human breast cancer cells, ATCC, Cat. No. HTB-30), NCI-H23 (human non-small cell lung cancer cells, Nanjing Cobioer, Cat. No. CBP60132), and MKN45 (human gastric cancer cells, Nanjing Cobioer, Cat. No. CBP60488). The cells were treated in vitro with different concentrations of the compounds. After 6 days of culture, the proliferation of the cells was measured using CTG (CellTiter-Glo® Luminescent Cell Viability Assay, Promega, Cat. No. G7573) reagent, and the in vitro activity of the compounds was evaluated based on their IC50 values.
(§2) • 1. Cell culture: SK-BR-3, NCI-H23, and MKN45 cells were separately cultured in McCoy's 5A medium (ThermoFisher, Cat. No. 16600108) and RPMI 1640 medium (ThermoFisher, Cat. No. 11875119) containing 10% FBS (Gibco, 10099-141). • 2. Cell plating: After being digested with trypsin (0.25% Trypsin-EDTA (1×), Life Technologies, Cat. No. 25200-072), the SK-BR-3, NCI-H23, and MKN45 were resuspended in their respective media and counted. The density was adjusted to 1.48×10^4 cells/mL, and the cells were plated onto 96-well plates (corning, Cat. No. 3903) at 135 μL/well, i.e., 2000 cells/well, and cultured at 37° C. for 24 h. • 3. Drug formulation: PBD drugs were formulated in round-bottom 96-well plates. Plate 1: In the first column, the concentration was 0.05 mM; in the second column through the fourth column, a 3-fold serial dilution was performed in DMSO; in the fifth column through the sixth column, a 5-fold serial dilution was performed in DMSO; in the seventh column through the ninth column, a 10-fold serial dilution was performed in DMSO; and the tenth column contained DMSO. Plate 2: Corresponding media were added to the first column through the tenth column at 196 μL/well; 4 μL of solution was transferred from each well of the first column through the tenth column of plate 1 to plate 2 and well mixed with the medium; 15 μL of the mixture was added to the cells plated the day before, and the cells were cultured at 37° C. for another 6 days. • 4. CTG assay: The cell culture plates were taken out and equilibrated to room temperature. CTG was added at 75 μL/well, and the plates were incubated at room temperature in the dark for 10 min. Then luminescence values were measured on a microplate reader (BMG labtech, PHERAstar FS).

[2] = system: SK-BR-3 tumor cells (human breast cancer cells); details: 144 h, 6 days of culture
Method: as §1, §2

[3] = system: MKN45 (human gastric cancer cells); details: MKN-45, 144 h, 6 days of culture
Method: as §1, §2

SMILES	IC50 [1]	IC50 [2]	IC50 [3]
COc1ccc(C2=CN3C(=O)c4cc(OC)c(OCCOCCOc5cc6c(cc5OC)C(=O)N5CC7(CC7)C[C@H]5C=N6)cc4NC[C@@H]3C2)cc1 [2-26, (S)-7-Methoxy-8-(2-(2-(((S)-7-methoxy-2-(4-methoxyphenyl)-5-oxo-5,10,11,11a-tetrahydro-1H-benzo[e]pyrrolo[1,2-a][1,4]diazepin-8-yl)oxy)ethoxy)ethoxy)-1,11a-dihydro-3H,5H-spiro[benzo[e]pyrrolo[1,2-a][1,4]diazepine-2,1′-cyclopropan]-5-one]	2.98 nM	2.12 nM	2.42 nM
COc1ccc(C2=CN3C(=O)c4cc(OC)c(OCCCCCOc5cc6c(cc5OC)C(=O)N5CC7(CC7)C[C@H]5CN6)cc4NC[C@@H]3C2)cc1 [2-27, (S)-7-Methoxy-8-((5-(((S)-7-methoxy-2-(4-methoxyphenyl)-5-oxo-5,10,11,11a-tetrahydro-1H-benzo[e]pyrrolo[1,2-a][1,4]diazepin-8-yl)oxy)pentyl)oxy)-1,10,11,11a-tetrahydro-3H,5H-spiro[benzo[e]pyrrolo[1,2-a][1,4]diazepine-2,1′-cyclopropan]-5-one]	7.28 nM	5 nM	7.51 nM
COc1ccc(C2=CN3C(=O)c4cc(OC)c(OCc5cncc(COc6cc7c(cc6OC)C(=O)N6CC8(CC8)C[C@H]6C=N7)c5)cc4NC[C@@H]3C2)cc1 [2-29]	0.02 nM	0.08 nM	0.02 nM
COc1cc2c(cc1OCCCCCOc1cc3c(cc1OC)C(=O)N1C=C(c4ccc(N5CCN(CCO)CC5)cc4)C[C@H]1CN3)N=C[C@@H]1CC3(CC3)CN1C2=O [2-30, (S)-8-((5-(((S)-2-(4-(4-(2-Hydroxyethyl)piperazin-1-yl)phenyl)-7-methoxy-5-oxo-5,10,11,11a-tetrahydro-1H-benzo[e]pyrrolo[1,2-a][1,4]diazepin-8-yl)oxy)pentyl)oxy)-7-methoxy-1,11a-dihydro-3H,5H-spiro[benzo[e]pyrrolo[1,2-a][1,4]diazepine-2,1′-cyclopropan]-5-one]	0.02 nM	0.21 nM	0.04 nM
COc1cc2c(cc1OCCCCCOc1cc3c(cc1OC)C(=O)N1C=C(c4ccc(N5CCN(C[C@@H](O)CO)CC5)cc4)C[C@H]1CN3)N=C[C@@H]1CC3(CC3)CN1C2=O [2-31, (S)-8-((5-(((S)-2-(4-(4-((R)-2,3-Dihydroxypropyl)piperazin-1-yl)phenyl)-7-methoxy-5-oxo-5,10,11,11a-tetrahydro-1H-benzo[e]pyrrolo[1,2-a][1,4]diazepin-8-yl)oxy)pentyl)oxy)-7-methoxy-1,11a-dihydro-3H,5H-spiro[benzo[e]pyrrolo[1,2-a][1,4]diazepine-2,1′-cyclopropan]-5-one]	0.08 nM	0.37 nM	0.1 nM
COc1cc2c(cc1OCCCCCOc1cc3c(cc1OC)C(=O)N1C=C(c4ccc(N5CCN(C(=O)CO)CC5)cc4)C[C@H]1CN3)N=C[C@@H]1CC3(CC3)CN1C2=O [2-32, (S)-8-((5-(((S)-2-(4-(4-(2-Hydroxyacetyl)piperazin-1-yl)phenyl)-7-methoxy-5-oxo-5,10,11,11a-tetrahydro-1H-benzo[e]pyrrolo[1,2-a][1,4]diazepin-8-yl)oxy)pentyl)oxy)-7-methoxy-1,11a-dihydro-3H,5H-spiro[benzo[e]pyrrolo[1,2-a][1,4]diazepine-2,1′-cyclopropan]-5-one]	0.09 nM	0.78 nM	0.13 nM
COc1cc2c(cc1OCCCCCOc1cc3c(cc1OC)C(=O)N1C=C(c4ccc(N5CCN(C[C@H](O)CO)CC5)cc4)C[C@H]1CN3)N=C[C@@H]1CC3(CC3)CN1C2=O [2-33, (S)-8-((5-(((S)-2-(4-(4-((S)-2,3-Dihydroxypropyl)piperazin-1-yl)phenyl)-7-methoxy-5-oxo-5,10,11,11a-tetrahydro-1H-benzo[e]pyrrolo[1,2-a][1,4]diazepin-8-yl)oxy)pentyl)oxy)-7-methoxy-1,11a-dihydro-3H,5H-spiro[benzo[e]pyrrolo[1,2-a][1,4]diazepine-2,1′-cyclopropan]-5-one]	0.3 nM	0.73 nM	0.38 nM
COc1cc2c(cc1OCCCCCOc1cc3c(cc1OC)C(=O)N1C=C(c4ccc(SCC5CC5)cc4)C[C@H]1CN3)N=C[C@@H]1CC3(CC3)CN1C2=O [2-34, (S)-8-((5-(((S)-2-(4-((Cyclopropylmethyl)thio)phenyl)-7-methoxy-5-oxo-5,10,11,11a-tetrahydro-1H-benzo[e]pyrrolo[1,2-a][1,4]diazepin-8-yl)oxy)pentyl)oxy)-7-methoxy-1,11a-dihydro-3H,5H-spiro[benzo[e]pyrrolo[1,2-a][1,4]diazepine-2,1′-cyclopropan]-5-one]	0.62 nM	1.42 nM	1.37 nM
COc1cc2c(cc1OCCCCCOc1cc3c(cc1OC)C(=O)N1C=C(c4ccc(SC5CCC5)cc4)C[C@H]1CN3)N=C[C@@H]1CC3(CC3)CN1C2=O [2-35, (S)-8-((5-(((S)-2-(4-(Cyclobutylthio)phenyl)-7-methoxy-5-oxo-5,10,11,11a-tetrahydro-1H-benzo[e]pyrrolo[1,2-a][1,4]diazepin-8-yl)oxy)pentyl)oxy)-7-methoxy-1,11a-dihydro-3H,5H-spiro[benzo[e]pyrrolo[1,2-a][1,4]diazepine-2,1′-cyclopropan]-5-one]	0.84 nM	1.7 nM	2.73 nM
COc1cc2c(cc1OCCCCCOc1cc3c(cc1OC1CC1)C(=O)N1CC4(CC4)C[C@H]1C=N3)NC[C@@H]1CC(c3ccc(C4CCOCC4)cc3)=CN1C2=O [2-39, (S)-7-Cyclopropoxy-8-((5-(((S)-7-methoxy-5-oxo-2-(4-(tetrahydro-2H-pyran-4-yl)phenyl)-5,10,11,11a-tetrahydro-1H-benzo[e]pyrrolo[1,2-a][1,4]diazepin-8-yl)oxy)pentyl)oxy)-1,11a-dihydro-3H,5H-spiro[benzo[e]pyrrolo[1,2-a][1,4]diazepine-2,1′-cyclopropan]-5-one]	0.39 nM	0.58 nM	0.84 nM

— patent US20250000989A1, “PYRROLO BENZODIAZEPINE DERIVATIVE, AND CONJUGATE, PREPARATION METHOD AND USE THEREOF” (priority 2021, published 2025)
